Experimental data as given in patent US11000033B2, “Ketone or oxime compound, and herbicide” (NISSAN CHEMICAL CORPORATION, priority 2014, dated 2021).

Experiments:
Assay type in all cases: in vivo
Conditions in all cases: 320 g/ha, 3 weeks after application
rapeseed = assay: Test Example 5: effect on crop by foliage application, plastic box (symbol g)
In short: (§1)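 Diluvial soil, sterilized and boxed (21 × 13 × 7 cm), received spot-sown seed covered by about 1.5 cm soil; plants were then greenhouse-grown at 25–30° C.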

beet = assay: Test Example 5: effect on crop by foliage application, plastic box (symbol f)
In short: as §1

wheat = assay: Test Example 5: effect on crop by foliage application, plastic box (symbol e)
In short: as §1

Setaria viridis = assay: Test Example 5: herbicidal effect by foliage application, plastic box (symbol G)
In short: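 Herbicide, formulated as an emulsion and diluted in water, is sprayed onto the aerial parts of 14-day seedlings. These were grown at 25° C. to 30° C. in sterilized diluvial soil; effects are graded after 3 weeks.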

| Structure (SMILES) | g: rapeseed, effect on crop (criteria 0-5) (rapeseed) | f: beet, effect on crop (criteria 0-5) (beet) | e: wheat, effect on crop (criteria 0-5) (wheat) | G: Setaria viridis, herbicidal effect (criteria 0-5) (Setaria viridis) | g: rapeseed, effect on crop grade (rapeseed) | f: beet, effect on crop grade (beet) | e: wheat, effect on crop grade (wheat) | G: Setaria viridis, herbicidal effect grade (Setaria viridis) |
| --- | --- | --- | --- | --- | --- | --- | --- | --- |
| CON=C(C)CC1CC(OC(=O)C#C[Si](C)(C)C)=C(c2c(C)cc(C)cc2C)C1=O (stereo not shown) [1-096] | 4 (Herbicidal ratio of 70% or higher and lower than 90%) | 0 (Herbicidal ratio of 5% or lower (almost no effect)) | 5 (Herbicidal ratio of 90% or more (almost completely withered)) | 5 (Herbicidal ratio of 90% or more (almost completely withered)) |  |  |  |  |
| CC#Cc1cc(C)c(C2=C(O)CC(CC(=NOC)C(C)C)C2=O)c(C)c1 (stereo not shown) [9-006] |  |  |  |  | 4 (Herbicidal ratio of 70% or higher and lower than 90%) | 0 (Herbicidal ratio of 5% or lower (almost no effect)) | 5 (Herbicidal ratio of 90% or more (almost completely withered)) | 5 (Herbicidal ratio of 90% or more (almost completely withered)) |
| CON=C(C)CC1CC(OC(=O)CSc2ccccc2)=C(c2c(C)cc(C)cc2C)C1=O (stereo not shown) [1-134] | 4 (Herbicidal ratio of 70% or higher and lower than 90%) | 0 (Herbicidal ratio of 5% or lower (almost no effect)) | 5 (Herbicidal ratio of 90% or more (almost completely withered)) | 5 (Herbicidal ratio of 90% or more (almost completely withered)) |  |  |  |  |
| CC#Cc1cc(C)c(C2=C(O)CC(CC(=NOCCOC)C3CC3)C2=O)c(C)c1 (stereo not shown) [9-021] |  |  |  |  | 4 (Herbicidal ratio of 70% or higher and lower than 90%) | 0 (Herbicidal ratio of 5% or lower (almost no effect)) | 4 (Herbicidal ratio of 70% or higher and lower than 90%) | 5 (Herbicidal ratio of 90% or more (almost completely withered)) |
| CCC(CC1CC(O)=C(c2c(C)cc(C)cc2OC)C1=O)=NOC (mixture of isomers) [13-003] |  |  |  |  | 4 (Herbicidal ratio of 70% or higher and lower than 90%) | 0 (Herbicidal ratio of 5% or lower (almost no effect)) | 5 (Herbicidal ratio of 90% or more (almost completely withered)) | 5 (Herbicidal ratio of 90% or more (almost completely withered)) |
| COCCON=C(C)CC1CC(O)=C(c2c(C)cc(Br)cc2C)C1=O (stereo not shown) [9-017] |  |  |  |  | 3 (Herbicidal ratio of 40% or higher and lower than 70%) | 0 (Herbicidal ratio of 5% or lower (almost no effect)) | 3 (Herbicidal ratio of 40% or higher and lower than 70%) | 5 (Herbicidal ratio of 90% or more (almost completely withered)) |
| CON=C(CC1CC(OC(=O)N2CCOCC2)=C(c2c(C)cc(C)cc2OC)C1=O)C1CC1 (mixture of isomers) [13-005] |  |  |  |  | 3 (Herbicidal ratio of 40% or higher and lower than 70%) | 0 (Herbicidal ratio of 5% or lower (almost no effect)) | 5 (Herbicidal ratio of 90% or more (almost completely withered)) | 5 (Herbicidal ratio of 90% or more (almost completely withered)) |
| COCCON=C(C)CC1CC(O)=C(c2c(C)cc(-n3cc(Cl)cn3)cc2C)C1=O (stereo not shown) [9-016] |  |  |  |  | 3 (Herbicidal ratio of 40% or higher and lower than 70%) | 0 (Herbicidal ratio of 5% or lower (almost no effect)) | 3 (Herbicidal ratio of 40% or higher and lower than 70%) | 5 (Herbicidal ratio of 90% or more (almost completely withered)) |
| COCCON=C(CC1CC(O)=C(c2c(C)cc(Br)cc2C)C1=O)C1CC1 (stereo not shown) [9-019] |  |  |  |  | 1 (Herbicidal ratio of 5% or higher and lower than 20%) | 0 (Herbicidal ratio of 5% or lower (almost no effect)) | 0 (Herbicidal ratio of 5% or lower (almost no effect)) | 5 (Herbicidal ratio of 90% or more (almost completely withered)) |
| CON=C(C)CON=C(C)CC1CC(O)=C(c2c(C)cc(C)cc2C)C1=O (stereo not shown) [1-105] | 4 (Herbicidal ratio of 70% or higher and lower than 90%) | 0 (Herbicidal ratio of 5% or lower (almost no effect)) | 5 (Herbicidal ratio of 90% or more (almost completely withered)) | 5 (Herbicidal ratio of 90% or more (almost completely withered)) |  |  |  |  |
| CON=C(C)CC1(C)CC(O)=C(c2c(C)cc(C)cc2C)C1=O (mixture of isomers) [11-002] |  |  |  |  | 4 (Herbicidal ratio of 70% or higher and lower than 90%) | 0 (Herbicidal ratio of 5% or lower (almost no effect)) | 2 (Herbicidal ratio of 20% or higher and lower than 40%) | 4 (Herbicidal ratio of 70% or higher and lower than 90%) |
| CC(CC1CC(O)=C(c2c(C)cc(C)cc2C)C1=O)=NOC1CCCC1 (stereo not shown) [1-106] | 3 (Herbicidal ratio of 40% or higher and lower than 70%) | 0 (Herbicidal ratio of 5% or lower (almost no effect)) | 4 (Herbicidal ratio of 70% or higher and lower than 90%) | 5 (Herbicidal ratio of 90% or more (almost completely withered)) |  |  |  |  |
| CC(CC1CC(O)=C(c2c(C)cc(C)cc2C)C1=O)=NOCC(C)Br (stereo not shown) [1-135] | 4 (Herbicidal ratio of 70% or higher and lower than 90%) | 0 (Herbicidal ratio of 5% or lower (almost no effect)) | 2 (Herbicidal ratio of 20% or higher and lower than 40%) | 5 (Herbicidal ratio of 90% or more (almost completely withered)) |  |  |  |  |
| C=C(C)CN(CC)C(=O)OC1=C(c2c(C)cc(C)cc2C)C(=O)C(CC(C)=NOC)C1 (stereo not shown) [1-130] | 5 (Herbicidal ratio of 90% or more (almost completely withered)) | 0 (Herbicidal ratio of 5% or lower (almost no effect)) | 2 (Herbicidal ratio of 20% or higher and lower than 40%) | 5 (Herbicidal ratio of 90% or more (almost completely withered)) |  |  |  |  |
| CCCCCCCCS(=O)(=O)OC1=C(c2c(C)cc(C)cc2C)C(=O)C(CC(C)=NOC)C1 (stereo not shown) [1-107] | 4 (Herbicidal ratio of 70% or higher and lower than 90%) | 0 (Herbicidal ratio of 5% or lower (almost no effect)) | 2 (Herbicidal ratio of 20% or higher and lower than 40%) | 5 (Herbicidal ratio of 90% or more (almost completely withered)) |  |  |  |  |
| CC(CC1CC(O)=C(c2c(C)cc(C)cc2C)C1=O)=NOCc1ccccc1Cl (stereo not shown) [1-113] | 5 (Herbicidal ratio of 90% or more (almost completely withered)) | 0 (Herbicidal ratio of 5% or lower (almost no effect)) | 3 (Herbicidal ratio of 40% or higher and lower than 70%) | 4 (Herbicidal ratio of 70% or higher and lower than 90%) |  |  |  |  |
| CCC(CC1CC(O)=C(c2c(C)cc(-c3ccccc3)cc2OC)C1=O)=NOC (mixture of isomers) [13-004] |  |  |  |  | 4 (Herbicidal ratio of 70% or higher and lower than 90%) | 0 (Herbicidal ratio of 5% or lower (almost no effect)) | 5 (Herbicidal ratio of 90% or more (almost completely withered)) | 5 (Herbicidal ratio of 90% or more (almost completely withered)) |
| CON=C(CC1CC(O)=C(c2c(C)cc(-c3ccccc3)cc2C)C1=O)C1CC1 (mixture of isomers) [9-028] |  |  |  |  | 4 (Herbicidal ratio of 70% or higher and lower than 90%) | 3 (Herbicidal ratio of 40% or higher and lower than 70%) | 4 (Herbicidal ratio of 70% or higher and lower than 90%) | 5 (Herbicidal ratio of 90% or more (almost completely withered)) |
| COc1ccc(CON=C(C)CC2CC(O)=C(c3c(C)cc(C)cc3C)C2=O)cc1 (stereo not shown) [1-112] | 4 (Herbicidal ratio of 70% or higher and lower than 90%) | 0 (Herbicidal ratio of 5% or lower (almost no effect)) | 5 (Herbicidal ratio of 90% or more (almost completely withered)) | 4 (Herbicidal ratio of 70% or higher and lower than 90%) |  |  |  |  |
| Cc1cc(Br)cc(C)c1C1=C(O)CC(CC(=NOCC(F)(F)F)C2CC2)C1=O (stereo not shown) [9-009] |  |  |  |  | 3 (Herbicidal ratio of 40% or higher and lower than 70%) | 0 (Herbicidal ratio of 5% or lower (almost no effect)) | 0 (Herbicidal ratio of 5% or lower (almost no effect)) | 5 (Herbicidal ratio of 90% or more (almost completely withered)) |
| CC(CC1CC(O)=C(c2c(C)cc(C)cc2C)C1=O)=NOCc1ccc(F)cc1 (stereo not shown) [1-136] | 4 (Herbicidal ratio of 70% or higher and lower than 90%) | 0 (Herbicidal ratio of 5% or lower (almost no effect)) | 3 (Herbicidal ratio of 40% or higher and lower than 70%) | 5 (Herbicidal ratio of 90% or more (almost completely withered)) |  |  |  |  |
| C=CCOC1=C(c2c(C)cc(C)cc2C)C(=O)C(CC(C)=NOC)C1 (stereo not shown) [1-007] |  |  |  |  | 0 (Herbicidal ratio of 5% or lower (almost no effect)) | 0 (Herbicidal ratio of 5% or lower (almost no effect)) | 0 (Herbicidal ratio of 5% or lower (almost no effect)) | 0 (Herbicidal ratio of 5% or lower (almost no effect)) |
